Experimental data from US9493461B2, “Tetracyclic heterocycle compounds and methods of use thereof for the treatment of hepatitis C” (priority 2013, dated 2016).
Like-named read-outs stand apart in the source and are kept apart here.

Assays:
HCV replicon genotype 1a = assay: HCV replicon assay, genotype 1a (cell ELISA for replicon-encoded NS3/4A); format: cell-based, hepatitis C virus (HCV)
Experimental: Measurement of inhibition by compounds was performed using the HCV replicon system. Several different replicons encoding different HCV genotypes or mutations were used. In addition, potency measurements were made using different formats of the replicon assay, including different ways of measurements and different plating formats. See Jan M. Vrolijk et al., A replicons-based bioassay for the measurement of interferons in patients with chronic hepatitis C, 110 J. V[…] 201 (2003); Steven S. Carroll et al., Inhibition of Hepatitis C Virus RNA Replication by 2′-Modified Nucleoside Analogs, 278(14) J. BIOLOGICAL CHEMISTRY 11979 (2003). However, the underlying principles are common to all of these determinations, and are outlined below.
(§1) Stable neomycin phosphotransferase encoding replicons-harboring cell lines were used, so all cell lines were maintained under G418 selection prior to the assay. Potency was determined using a cell ELISA assay with an antibody to the replicons encoded NS3/4a protease. See Caterina Trozzi et al., In Vitro Selection and Characterization of Hepatitis C Virus Serine Protease Variants Resistant to an Active-Site Peptide Inhibitor, 77(6) J. Virol. 3669 (2003). To initiate an assay, replicon cells were plated in the presence of a dilution series of test compound in the absence of G418. Typically, the assays were performed in a 96-well plate formate for manual operation, or a 384-well plate format for automated assay. Replicon cells and compound were incubated for 96 hours. At the end of the assay, cells were washed free of media and compound, and the cells were then lysed. RNA was quantified indirectly through detection of replicon-encoded NS3/4A protein levels, through an ELISA-based assay with an antibody specific for NS3/4A. IC50 determinations were calculated as a percentage of a DMSO control by fitting the data to a four-parameter fit function and the data obtained is provided in the table below.
(§2) Data for selected compounds of the present invention was obtained for genotypes 1a and 1b using this method and is provided in the table below: […]

HCV replicon genotype 1b = assay: HCV replicon assay, genotype 1b (cell ELISA for replicon-encoded NS3/4A); format: cell-based, hepatitis C virus (HCV)
Experimental: The HCV NS5B inhibitory activity of the present compounds may be tested using assays known in the art. The HCV NS5B polymerase inhibitors described herein have activities in a genotype 1b replicon assay as described in the Examples. The assay is performed by incubating a replicon harboring cell-line in the presence of inhibitor for a set period of time and measuring the effect of the inhibitor on HCV replicon replication either directly by quantifying replicon RNA level, or indirectly by measuring enzymatic activity of a co-encoded reporter enzyme such as luciferase or β-lactamase. By performing a series of such measurements at different inhibitor concentrations, the effective inhibitory concentration of the inhibitor (EC50 or EC90) is determined See Jan M. Vrolijk et al., A replicons-based bioassay for the measurement of interferons in patients with chronic hepatitis C, 110 J. VIROLOGICAL METHODS 201 (2003). Such assays may also be run in an automated format for high through-put screening. See Paul Zuck et al., A cell-based β-lactamase reporter gene assay for the identification of inhibitors of hepatitis C virus replication, 334 ANALYTICAL BIOCHEMISTRY 344 (2004).
Measurement of inhibition by compounds was performed using the HCV replicon system. Several different replicons encoding different HCV genotypes or mutations were used. In addition, potency measurements were made using different formats of the replicon assay, including different ways of measurements and different plating formats. See Jan M. Vrolijk et al., A replicons-based bioassay for the measurement of interferons in patients with chronic hepatitis C, 110 J. VIROLOGICAL METHODS 201 (2003); Steven S. Carroll et al., Inhibition of Hepatitis C Virus RNA Replication by 2′-Modified Nucleoside Analogs, 278(14) J. BIOLOGICAL CHEMISTRY 11979 (2003). However, the underlying principles are common to all of these determinations, and are outlined below.
as §1, §2

[1] = Hepatitis C virus, 96 h, read-out: 1a IC50 (nM), genotype 1a replicon cells, 96 hours incubation, NS3/4A ELISA readout, % of DMSO control
[2] = Hepatitis C virus, 96 h, read-out: 1b IC50 (nM), genotype 1b replicon cells, 96 hours incubation, NS3/4A ELISA readout, % of DMSO control
[3] = read-out: 1a IC50, genotype 1a replicon cells, 96 hours incubation, NS3/4A ELISA readout, % of DMSO control
[4] = read-out: 1b IC50, genotype 1b replicon cells, 96 hours incubation, NS3/4A ELISA readout, % of DMSO control

## CNC(=O)c1c(-c2ccc(F)cc2)oc2cc(N(C)S(C)(=O)=O)c(-c3ccc4nc(CN5CC(F)C5)n5c6cccc(C#N)c6cc5c4n3)cc12 [Example 120]
HCV replicon genotype 1a; [1]
  IC50: 1.67 nM
HCV replicon genotype 1b; [2]
  IC50: 2.01 nM

## CNC(=O)c1c(-c2ccc(F)cc2)oc2cc(N(C)S(C)(=O)=O)c(-c3ccc4nc(CN)n5c6cccc(F)c6cc5c4n3)cc12 [Example 111]
HCV replicon genotype 1a; [1]
  IC50: 4.15 nM
HCV replicon genotype 1b; [2]
  IC50: 7.79 nM

## CNC(=O)c1c(-c2ccc(F)cc2F)oc2cc(N(C)S(C)(=O)=O)c(-c3ccc4nc(CN5CC(F)C5)n5c6cccc(F)c6cc5c4n3)cc12 [Example 37]
HCV replicon genotype 1a; [1]
  IC50: 5.26 nM
HCV replicon genotype 1b; [2]
  IC50: 7.26 nM

## CNC(=O)c1c(-c2ccc(C(F)(F)F)nc2)oc2cc(N(C)S(C)(=O)=O)c(-c3cc4c(cn3)ncn3c5cccc(F)c5cc43)cc12 [Example 17, 5-(11-fluoropyrido[3′,4′:4,5]pyrimido[1,6-a]indol-2-yl)-N-methyl-6-(N-methylmethylsulfonamido)-2-(6-(trifluoromethyl)pyridin-3-yl)benzofuran-3-carboxamide]
HCV replicon genotype 1a; [1]
  IC50: 1.27 nM
HCV replicon genotype 1b; [2]
  IC50: 1.78 nM

## CNC(=O)c1c(-c2ccc(F)cc2F)oc2cc(N(C)S(C)(=O)=O)c(-c3ccc4nc(CN5CCC(F)(C#N)CC5)n5c6cccc(F)c6cc5c4n3)cc12 [Example 141]
HCV replicon genotype 1a; [1]
  IC50: 5.48 nM
HCV replicon genotype 1b; [2]
  IC50: 5.99 nM

## CNC(=O)c1c(-c2ccc(F)cc2)oc2cc(N(C)S(C)(=O)=O)c(-c3ccc4nc(CN5CC(C)(OC)C5)n5c6cccc(F)c6cc5c4n3)cc12 [Example 104]
HCV replicon genotype 1a; [1]
  IC50: 2.31 nM
HCV replicon genotype 1b; [2]
  IC50: 5.23 nM

## CNC(=O)c1c(-c2ccc(F)cc2)oc2cc(N(C)S(C)(=O)=O)c(-c3ccc4nc(C(C)N5CC(F)C5)n5c6cccc(F)c6cc5c4n3)cc12 (single isomer, unassigned) [Example 40, (S or R)-5-(11-fluoro-6-(1-(3-fluoroazetidin-1-yl)ethyl)pyrido[3′,2′:4,5]pyrimido[1,6-a]indol-2-yl)-2-(4-fluorophenyl)-N-methyl-6-(N-methylmethylsulfonamido)benzofuran-3-carboxamide]
HCV replicon genotype 1a; [3]
  IC50: 3.91 nM
HCV replicon genotype 1b; [4]
  IC50: 4.42 nM

## CNC(=O)c1c(-c2ccc(F)cc2)oc2cc(N(C)S(C)(=O)=O)c(-c3ccc4nc(CN5CCC(F)(C#N)CC5)n5c6cccc(F)c6cc5c4n3)cc12 [Example 106]
HCV replicon genotype 1a; [1]
  IC50: 7.25 nM
HCV replicon genotype 1b; [2]
  IC50: 8.2 nM

## CNC(=O)c1c(-c2ccc(F)cc2)oc2cc(N(C)S(C)(=O)=O)c(-c3ccc4nc(CN5CCC(F)(F)C5)n5c6cccc(C#N)c6cc5c4n3)cc12 [Example 122]
HCV replicon genotype 1a; [1]
  IC50: 2.44 nM
HCV replicon genotype 1b; [2]
  IC50: 3.46 nM

## CNC(=O)c1c(-n2cnc(C)n2)oc2cc(N(C)S(C)(=O)=O)c(-c3ccc4ncn5c6cccc(F)c6cc5c4n3)cc12 [Example 13]
HCV replicon genotype 1a; [1]
  IC50: 298 nM
HCV replicon genotype 1b; [2]
  IC50: 99.5 nM

## CNC(=O)c1c(-c2ccc(F)cc2)oc2cc(N(C)S(C)(=O)=O)c(-c3ccc4nc(CN5CC(C)(C#N)C5)n5c6cccc(C#N)c6cc5c4n3)cc12 [Example 130]
HCV replicon genotype 1a; [1]
  IC50: 1.22 nM
HCV replicon genotype 1b; [2]
  IC50: 1.39 nM

## CNC(=O)c1c(-c2ccc(F)cc2)oc2cc(N(C)S(C)(=O)=O)c(-c3ccc4nc(CN5CC(C)(F)C5)n5c6cccc(C#N)c6cc5c4n3)cc12 [Example 128]
HCV replicon genotype 1a; [1]
  IC50: 2.3 nM
HCV replicon genotype 1b; [2]
  IC50: 2.98 nM

## CNC(=O)c1c(-c2ccc(F)cc2)oc2cc(N(C)S(C)(=O)=O)c(-c3ccc4nc(CN5CC[C@@H](OC)C5)n5c6cccc(F)c6cc5c4n3)cc12 [Example 100]
HCV replicon genotype 1a; [1]
  IC50: 2.6 nM
HCV replicon genotype 1b; [2]
  IC50: 4.46 nM

## CNC(=O)c1c(C2CC2)oc2cc(N(C)S(C)(=O)=O)c(-c3ccc4nc(CN5CC(F)C5)n5c6cccc(F)c6cc5c4n3)cc12 [Example 33]
HCV replicon genotype 1a; [3]
  IC50: 2.35 nM
HCV replicon genotype 1b; [4]
  IC50: 2.55 nM

## CNC(=O)c1c2cc(-c3ccc4ncn5c6cccc(F)c6cc5c4n3)c(N(C)S(C)(=O)=O)cc2nn1-c1ccc(F)cc1 [Example 15, 2-(4-fluorophenyl)-5-(11-fluoropyrido[3′,2′:4,5]pyrimido[1,6-a]indol-2-yl)-N-methyl-6-(N-methylmethylsulfonamido)-2H-indazole-3-carboxamide]
HCV replicon genotype 1a; [1]
  IC50: 3.04 nM
HCV replicon genotype 1b; [2]
  IC50: 5.27 nM

## CNC(=O)c1c(-n2ccc(C)cc2=O)oc2cc(N(C)S(C)(=O)=O)c(-c3ccc4nc(CN5CC(C)(C#N)C5)n5c6cccc(F)c6cc5c4n3)cc12 [Example 36]
HCV replicon genotype 1a; [1]
  IC50: 2.49 nM
HCV replicon genotype 1b; [2]
  IC50: 3.21 nM

## CNC(=O)c1c(-c2ccc(F)cc2)oc2cc(N(C)S(C)(=O)=O)c(-c3ccc4nc(CN5CC(F)(C#N)C5)n5c6cccc(F)c6cc5c4n3)cc12 [Example 110]
HCV replicon genotype 1a; [1]
  IC50: 4.04 nM
HCV replicon genotype 1b; [2]
  IC50: 5.51 nM

## CNC(=O)c1c(-c2ccc(F)cc2)oc2cc(N(C)S(C)(=O)=O)c(-c3ccc4nc(CN5CCOC(C(F)(F)F)C5)n5c6cccc(C#N)c6cc5c4n3)cc12 (stereo not drawn) [Example 129]
HCV replicon genotype 1a; [1]
  IC50: 5.68 nM
HCV replicon genotype 1b; [2]
  IC50: 6.95 nM

## CNC(=O)c1c(-c2ccc(F)cc2F)oc2cc(N(C)S(C)(=O)=O)c(-c3ccc4nc(CN5CC6CC5CO6)n5c6cccc(F)c6cc5c4n3)cc12 (stereo not drawn) [Example 146]
HCV replicon genotype 1a; [1]
  IC50: 3.38 nM
HCV replicon genotype 1b; [2]
  IC50: 3.38 nM

## CNC(=O)c1c(-c2ccc(F)cc2)oc2cc(N(C)S(C)(=O)=O)c(-c3ccc4nc(CN5CC(O)C5)n5c6cccc(F)c6cc5c4n3)cc12 [Example 77]
HCV replicon genotype 1a; [1]
  IC50: 5.26 nM
HCV replicon genotype 1b; [2]
  IC50: 5.61 nM

## CNC(=O)c1c(-c2ccc(C(F)F)nc2)oc2cc(N(C)S(C)(=O)=O)c(-c3ccc4ncn5c6cccc(F)c6cc5c4n3)cc12 [Example 3]
HCV replicon genotype 1a; [1]
  IC50: 3.38 nM
HCV replicon genotype 1b; [2]
  IC50: 4.12 nM

## CNC(=O)c1c(-c2ccc(F)cc2)oc2cc(N(C)S(C)(=O)=O)c(-c3ccc4[nH]c(=O)n5c6cccc(F)c6cc5c4n3)cc12 [Example 22]
HCV replicon genotype 1a; [1]
  IC50: 4.34 nM
HCV replicon genotype 1b; [2]
  IC50: 3.42 nM

## CNC(=O)c1c(-c2ccc(F)cc2)oc2cc(N(C)S(C)(=O)=O)c(-c3ccc4ncn5c6ccc(F)cc6cc5c4n3)cc12 [Example 20, 2-(4-fluorophenyl)-5-(10-fluoropyrido[3′,2′:4,5]pyrimido[1,6-a]indol-2-yl)-N-methyl-6-(N-methylmethylsulfonamido)benzofuran-3-carboxamide]
HCV replicon genotype 1a; [1]
  IC50: 1.59 nM
HCV replicon genotype 1b; [2]
  IC50: 3.33 nM

## CNC(=O)c1c(-c2ccc(F)cc2)oc2cc(N(C)S(C)(=O)=O)c(-c3ccc4nc(CN5CC(C)C5)n5c6cccc(F)c6cc5c4n3)cc12 [Example 103]
HCV replicon genotype 1a; [1]
  IC50: 2.05 nM
HCV replicon genotype 1b; [2]
  IC50: 5.27 nM

## CNC(=O)c1c(-c2ccc(F)cc2F)oc2cc(N(C)S(C)(=O)=O)c(-c3ccc4c(n3)-c3cc5c(F)cccc5n3CN4)cc12 [Example 58]
HCV replicon genotype 1a; [1]
  IC50: 1.68 nM
HCV replicon genotype 1b; [2]
  IC50: 2.76 nM

## CNC(=O)c1c(-c2ccc(F)cc2)oc2cc(N(C)S(C)(=O)=O)c(-c3ccc4nc(CN5CC6(CCOCC6)C5)n5c6cccc(C#N)c6cc5c4n3)cc12 [Example 127]
HCV replicon genotype 1a; [1]
  IC50: 1.5 nM
HCV replicon genotype 1b; [2]
  IC50: 2.57 nM

## CNC(=O)c1c(-c2ccc(F)cc2F)oc2cc(N(C)S(C)(=O)=O)c(-c3ccc4nc(CN5CC[C@@H](F)C5)n5c6cccc(F)c6cc5c4n3)cc12 [Example 44, (R)-2-(2,4-difluorophenyl)-5-(11-fluoro-6-((3-fluoropyrrolidin-1-yl)methyl)pyrido[3′,2′:4,5]pyrimido[1,6-a]indol-2-yl)-N-methyl-6-(N-methylmethylsulfonamido)benzofuran-3-carboxamide]
HCV replicon genotype 1a; [1]
  IC50: 3.22 nM
HCV replicon genotype 1b; [2]
  IC50: 3.45 nM
